Data published in ChEMBL document CHEMBL5465560, “Selectivity Literature for EUbOPEN Chemogenomic Library” (2024).
Each block holds one molecule with its values, some of them ahead of it.

Legend:
[1] = molecular target: T1, Mitogen-activated protein kinase kinase kinase 2 (Homo sapiens) (UniProt Q9Y2U5); assay: Selectivity interaction (KinomeScan (DiscoverX)) EUB0001619a MAP3K2; details: at 1 µM
T1 sequence (whole entry): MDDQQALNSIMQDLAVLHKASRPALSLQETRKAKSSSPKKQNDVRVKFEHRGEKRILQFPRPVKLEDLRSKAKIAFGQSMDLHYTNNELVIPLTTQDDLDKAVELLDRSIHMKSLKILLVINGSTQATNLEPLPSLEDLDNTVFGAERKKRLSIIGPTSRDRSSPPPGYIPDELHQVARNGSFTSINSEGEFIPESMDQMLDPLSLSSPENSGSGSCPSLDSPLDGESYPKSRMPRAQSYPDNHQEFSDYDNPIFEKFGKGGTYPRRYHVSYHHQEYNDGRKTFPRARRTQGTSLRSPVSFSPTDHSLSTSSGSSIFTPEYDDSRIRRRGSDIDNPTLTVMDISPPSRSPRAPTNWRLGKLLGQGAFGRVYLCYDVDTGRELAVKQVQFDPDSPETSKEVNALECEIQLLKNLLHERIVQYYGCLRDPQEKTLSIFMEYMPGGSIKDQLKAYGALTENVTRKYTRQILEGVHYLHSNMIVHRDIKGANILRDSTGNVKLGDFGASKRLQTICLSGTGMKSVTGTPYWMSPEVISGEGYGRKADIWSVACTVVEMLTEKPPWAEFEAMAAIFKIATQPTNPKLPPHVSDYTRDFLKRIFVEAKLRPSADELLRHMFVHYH

[2] = molecular target: Serine/threonine-protein kinase PAK 4 (Homo sapiens, UniProt O96013); assay: Selectivity interaction (KinomeScan (DiscoverX)) EUB0001619a PAK4; details: at 1 µM
[3] = molecular target: Tyrosine-protein kinase JAK2 (Homo sapiens, UniProt O60674); assay: Selectivity interaction (KinomeScan (DiscoverX)) EUB0000595a JAK2; details: at 10 µM
[4] = molecular target: T2, Membrane-associated tyrosine- and threonine-specific cdc2-inhibitory kinase (Homo sapiens) (UniProt Q99640); assay: Selectivity interaction (KinomeScan (DiscoverX)) EUB0000595a PKMYT1; details: at 10 µM
T2 sequence (whole entry): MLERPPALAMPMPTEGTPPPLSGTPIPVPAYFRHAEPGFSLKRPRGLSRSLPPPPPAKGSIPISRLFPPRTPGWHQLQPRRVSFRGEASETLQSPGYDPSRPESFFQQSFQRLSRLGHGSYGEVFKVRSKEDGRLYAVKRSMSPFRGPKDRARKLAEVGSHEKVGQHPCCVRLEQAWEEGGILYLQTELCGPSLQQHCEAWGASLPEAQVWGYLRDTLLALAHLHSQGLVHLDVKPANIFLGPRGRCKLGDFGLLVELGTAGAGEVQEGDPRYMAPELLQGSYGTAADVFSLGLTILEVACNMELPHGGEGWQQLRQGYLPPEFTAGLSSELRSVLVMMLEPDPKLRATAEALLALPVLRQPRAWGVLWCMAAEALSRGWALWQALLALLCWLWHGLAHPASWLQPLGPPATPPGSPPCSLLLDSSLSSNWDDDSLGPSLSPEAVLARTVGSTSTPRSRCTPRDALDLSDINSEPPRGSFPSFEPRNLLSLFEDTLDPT

[5] = molecular target: Cyclin-dependent kinase 2/cyclin E (Homo sapiens) (UniProt P24864+P24941+O96020); assay: Selectivity interaction (Upstate Kinase Profiler service (Millipore)) EUB0000056c CDK2; format: protein-complex assay; details: at 1 µM
[6] = molecular target: Serine/threonine-protein kinase WNK3 (Homo sapiens) (UniProt Q9BYP7); assay: Selectivity interaction (Upstate Kinase Profiler service (Millipore)) EUB0000056c WNK3; details: at 1 µM
[7] = molecular target: T3, Inhibitor of nuclear factor kappa-B kinase subunit beta (Homo sapiens) (UniProt O14920); assay: Selectivity interaction (ActivX KiNativ screen (kinase selectivity in THP-1 cell lysates)) EUB0000639a IKBKB; format: subcellular; details: lysate, at 0.04 µM
T3 sequence (whole entry): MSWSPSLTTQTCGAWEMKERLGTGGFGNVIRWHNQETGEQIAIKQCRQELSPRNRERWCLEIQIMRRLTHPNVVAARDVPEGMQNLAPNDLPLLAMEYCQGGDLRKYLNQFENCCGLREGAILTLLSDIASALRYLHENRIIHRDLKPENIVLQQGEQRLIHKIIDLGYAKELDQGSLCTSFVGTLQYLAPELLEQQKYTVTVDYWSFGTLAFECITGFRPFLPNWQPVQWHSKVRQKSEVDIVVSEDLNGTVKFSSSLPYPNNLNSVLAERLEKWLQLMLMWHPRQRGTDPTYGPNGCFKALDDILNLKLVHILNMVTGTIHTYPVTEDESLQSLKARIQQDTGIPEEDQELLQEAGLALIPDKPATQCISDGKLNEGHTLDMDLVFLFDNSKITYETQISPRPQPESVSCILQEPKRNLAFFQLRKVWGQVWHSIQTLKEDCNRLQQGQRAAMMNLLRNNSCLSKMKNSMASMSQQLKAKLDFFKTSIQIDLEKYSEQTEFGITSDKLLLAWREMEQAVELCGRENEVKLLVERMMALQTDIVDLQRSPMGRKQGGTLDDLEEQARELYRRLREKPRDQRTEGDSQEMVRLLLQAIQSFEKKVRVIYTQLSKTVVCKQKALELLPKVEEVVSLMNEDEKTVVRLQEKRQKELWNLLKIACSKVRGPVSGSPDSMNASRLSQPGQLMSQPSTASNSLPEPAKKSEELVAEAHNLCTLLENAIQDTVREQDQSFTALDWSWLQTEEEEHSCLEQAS

Chain of Tyrosine-protein kinase JAK2 (O60674 whole entry): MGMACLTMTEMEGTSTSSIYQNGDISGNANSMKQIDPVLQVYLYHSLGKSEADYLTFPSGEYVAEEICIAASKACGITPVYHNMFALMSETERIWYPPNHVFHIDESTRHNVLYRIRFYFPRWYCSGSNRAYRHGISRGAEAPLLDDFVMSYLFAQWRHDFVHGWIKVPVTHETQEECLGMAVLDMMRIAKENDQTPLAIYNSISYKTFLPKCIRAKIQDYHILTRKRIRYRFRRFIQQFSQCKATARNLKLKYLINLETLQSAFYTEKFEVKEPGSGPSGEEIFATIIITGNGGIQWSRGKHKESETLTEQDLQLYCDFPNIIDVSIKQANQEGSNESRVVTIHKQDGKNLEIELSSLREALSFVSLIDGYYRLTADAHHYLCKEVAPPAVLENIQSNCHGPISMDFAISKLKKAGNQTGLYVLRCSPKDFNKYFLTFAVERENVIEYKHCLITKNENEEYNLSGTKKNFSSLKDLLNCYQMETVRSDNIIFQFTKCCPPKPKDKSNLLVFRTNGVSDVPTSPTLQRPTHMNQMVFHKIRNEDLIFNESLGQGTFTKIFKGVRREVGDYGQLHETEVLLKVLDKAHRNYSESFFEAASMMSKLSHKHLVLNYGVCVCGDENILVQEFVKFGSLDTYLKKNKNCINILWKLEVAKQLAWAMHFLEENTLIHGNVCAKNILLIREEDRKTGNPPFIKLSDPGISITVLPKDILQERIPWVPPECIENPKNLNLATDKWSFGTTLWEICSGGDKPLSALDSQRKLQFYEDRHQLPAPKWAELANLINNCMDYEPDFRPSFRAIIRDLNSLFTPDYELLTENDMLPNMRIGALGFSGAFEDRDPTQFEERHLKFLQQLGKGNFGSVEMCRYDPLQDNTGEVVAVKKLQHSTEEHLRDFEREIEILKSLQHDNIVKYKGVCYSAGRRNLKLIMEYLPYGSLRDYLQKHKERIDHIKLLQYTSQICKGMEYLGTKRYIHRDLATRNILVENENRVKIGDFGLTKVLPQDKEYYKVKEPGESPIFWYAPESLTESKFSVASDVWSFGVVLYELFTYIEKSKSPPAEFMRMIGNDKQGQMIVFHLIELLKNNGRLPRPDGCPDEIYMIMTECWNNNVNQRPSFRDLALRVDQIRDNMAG
Chain of Serine/threonine-protein kinase PAK 4 (O96013 whole entry, looked up): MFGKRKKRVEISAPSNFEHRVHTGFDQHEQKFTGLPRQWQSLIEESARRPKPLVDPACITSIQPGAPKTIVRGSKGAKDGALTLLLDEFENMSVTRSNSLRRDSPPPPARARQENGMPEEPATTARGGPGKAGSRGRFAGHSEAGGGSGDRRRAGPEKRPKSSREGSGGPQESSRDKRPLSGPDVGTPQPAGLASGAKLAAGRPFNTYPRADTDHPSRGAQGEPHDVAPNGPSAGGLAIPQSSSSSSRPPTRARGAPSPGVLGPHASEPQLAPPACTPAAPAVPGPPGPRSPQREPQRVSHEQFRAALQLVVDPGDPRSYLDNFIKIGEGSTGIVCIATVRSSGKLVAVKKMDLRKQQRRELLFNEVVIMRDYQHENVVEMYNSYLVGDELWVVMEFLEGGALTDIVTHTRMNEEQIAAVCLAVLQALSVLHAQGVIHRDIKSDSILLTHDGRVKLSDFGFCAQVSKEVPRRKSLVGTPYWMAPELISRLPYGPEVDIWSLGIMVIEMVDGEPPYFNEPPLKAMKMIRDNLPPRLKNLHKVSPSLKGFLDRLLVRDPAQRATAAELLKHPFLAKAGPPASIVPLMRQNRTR
Chain of Serine/threonine-protein kinase WNK3 (Homo sapiens) (Q9BYP7 whole entry): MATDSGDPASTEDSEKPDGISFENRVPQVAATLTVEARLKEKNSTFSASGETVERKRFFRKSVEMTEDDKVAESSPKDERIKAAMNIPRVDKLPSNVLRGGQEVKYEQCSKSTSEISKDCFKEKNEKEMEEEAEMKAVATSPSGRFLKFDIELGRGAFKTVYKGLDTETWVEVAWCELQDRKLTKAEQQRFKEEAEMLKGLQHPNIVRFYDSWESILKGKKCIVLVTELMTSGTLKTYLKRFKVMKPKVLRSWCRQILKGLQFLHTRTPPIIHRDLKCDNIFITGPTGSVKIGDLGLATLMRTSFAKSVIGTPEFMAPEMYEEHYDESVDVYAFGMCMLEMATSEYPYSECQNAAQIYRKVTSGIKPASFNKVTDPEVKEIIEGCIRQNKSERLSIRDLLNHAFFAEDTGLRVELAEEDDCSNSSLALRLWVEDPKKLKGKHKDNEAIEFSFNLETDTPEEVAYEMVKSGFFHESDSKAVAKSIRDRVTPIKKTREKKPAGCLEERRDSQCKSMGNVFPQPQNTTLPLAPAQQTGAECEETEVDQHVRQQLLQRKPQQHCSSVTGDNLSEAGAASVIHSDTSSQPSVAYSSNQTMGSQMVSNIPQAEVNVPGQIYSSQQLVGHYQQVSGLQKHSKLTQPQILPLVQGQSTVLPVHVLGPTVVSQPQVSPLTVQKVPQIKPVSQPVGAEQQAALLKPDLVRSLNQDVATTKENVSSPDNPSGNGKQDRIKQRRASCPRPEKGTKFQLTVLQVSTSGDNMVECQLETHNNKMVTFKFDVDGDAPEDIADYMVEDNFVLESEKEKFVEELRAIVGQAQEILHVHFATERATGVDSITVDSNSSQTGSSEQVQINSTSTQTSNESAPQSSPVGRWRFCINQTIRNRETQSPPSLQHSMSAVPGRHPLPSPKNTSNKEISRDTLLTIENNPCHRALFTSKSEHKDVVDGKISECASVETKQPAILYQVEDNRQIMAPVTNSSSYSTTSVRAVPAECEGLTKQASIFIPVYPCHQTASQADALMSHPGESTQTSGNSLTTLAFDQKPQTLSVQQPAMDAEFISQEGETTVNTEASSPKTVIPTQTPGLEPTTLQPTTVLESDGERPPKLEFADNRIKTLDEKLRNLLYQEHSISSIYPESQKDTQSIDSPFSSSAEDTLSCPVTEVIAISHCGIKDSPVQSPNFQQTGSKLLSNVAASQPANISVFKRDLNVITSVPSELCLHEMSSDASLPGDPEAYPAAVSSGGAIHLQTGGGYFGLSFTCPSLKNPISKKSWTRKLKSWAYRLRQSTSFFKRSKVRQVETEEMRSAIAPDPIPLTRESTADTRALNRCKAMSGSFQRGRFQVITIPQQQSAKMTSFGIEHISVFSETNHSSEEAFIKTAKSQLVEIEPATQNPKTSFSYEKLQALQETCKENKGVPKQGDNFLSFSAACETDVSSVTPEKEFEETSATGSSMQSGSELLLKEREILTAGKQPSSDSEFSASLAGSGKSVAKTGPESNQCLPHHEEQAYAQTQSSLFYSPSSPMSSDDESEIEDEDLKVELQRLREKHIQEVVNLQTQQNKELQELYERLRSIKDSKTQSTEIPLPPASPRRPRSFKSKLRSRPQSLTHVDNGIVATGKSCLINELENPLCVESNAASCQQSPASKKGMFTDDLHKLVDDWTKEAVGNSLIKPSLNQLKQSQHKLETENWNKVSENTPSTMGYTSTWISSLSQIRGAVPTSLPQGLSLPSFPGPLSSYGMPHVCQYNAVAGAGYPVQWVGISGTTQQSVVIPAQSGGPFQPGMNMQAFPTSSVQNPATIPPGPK

SMILES: N#Cc1cccc(-c2c[nH]c3ncnc(N4CCOCC4)c23)c1
% of control [1]: 21%
% of control [2]: 100%

SMILES: COCC(=O)NC/C=C/c1ccc2ncnc(Nc3ccc(Oc4ccc(C)nc4)c(C)c3)c2c1 [CP-724714]
% of control [3]: 100%
% of control [4]: 100%

% of inhibition [5]: 35%
% of inhibition [6]: -1%
SMILES: Cc1ccc(-c2ccc3c(ccc4sc5c(c43)NC[C@@H](C)NC5=O)n2)cn1

% of inhibition [7]: -3.9%
SMILES: CC[C@@H]1[C@H](F)C(=O)N[C@@H]1COc1nccc2cc(C(N)=O)c(OC)cc12 [ZIMLOVISERTIB]
